According to patent publication US20250295798A1, “LIGAND-DRUG CONJUGATE OF EXATECAN ANALOGUE, AND MEDICAL USE THEREOF” (BeiGene Switzerland GmbH, priority 2022, published 2025):
pEC50: −log10 of the molar value.

How the values were obtained:
[1] = test system: A375; test: Compounds cellular killing in A375; format: cell-based, human
Experimental: (§1) Seeding cells A375 (1E3/well) or Calu-6 (2E3/well) into 96-well plate (Greiner: 655090), 100 ul/well. Incubation at 37° C., 5% CO2, overnight.
(§2) Adding the fresh growth-medium containing the varying concentrations of compounds, 50 ul/well.
(§3) Incubation at 37° C., 5% CO2, 6 days.
(§4) The cell viability detected by Cell Titer-Glo (Promega, G7573). Add 70 µL/well of CellTiter-Glo® Reagent in each well.
(§5) Allow the plates to incubate at room temperature for 10 minutes to stabilize luminescent signal.
(§6) Analyze with Microplate Reader.
(§7) Seeding cells A375 ([…] or Calu-6 (2E3/well) into 96-well plate (Greiner: 655090), 100 ul/well. Incubation at 37° C., […], overnight.

[2] = test system: Calu-6; test: Compounds cellular killing in Calu-6; format: cell-based, human; conditions: Calu-6, 6 days, Cell Titer-Glo
Experimental: as §1, §2, §3, §4, §5, §6, §7

[3] = Homo sapiens, A-375, […], A375, 6 days, Cell Titer-Glo
[4] = Homo sapiens, A-375, A375, 6 days, Cell Titer-Glo

CC[C@@]1(O)C(=O)OCc2c1cc1n(c2=O)Cc2c-1nc1cc(F)c(C)c3c1c2[C@@H](NC(=O)CC(O)C[N+](C)(C)C)CC3 (stereo partly drawn) [Example 2-16, 4-(((1S,9S)-9-ethyl-5-fluoro-9-hydroxy-4-methyl-10,13-dioxo-2,3,9,10,13,15-hexahydro-1H,12H-benzo[de]pyrano[3′,4′:6,7]indolizino[1,2-b]quinolin-1-yl)amino)-2-hydroxy-N,N,N-trimethyl-4-oxobutan-1-aminium]
pEC50 [1, 3]: 6.31
Emax [1, 3]: 77.1%
pEC50 ([2]; Homo sapiens, Calu-6, […]): 6.61
Emax ([2]; Homo sapiens, Calu-6, […]): 87.9%

CC[C@@]1(O)C(=O)OCc2c1cc1n(c2=O)Cc2c-1nc1cc(Cl)c(C)c3c1c2[C@@H](N)CC3 [Example 1-8, (1S,9S)-1-amino-5-chloro-9-ethyl-9-hydroxy-4-methyl-1,2,3,9,12,15-hexahydro-10H,13H-benzo[de]pyrano[3′,4′:6,7]indolizino[1,2-b]quinoline-10,13-dione]
pEC50 [1, 3]: 8.92
Emax [1, 3]: 98.8%
pEC50 ([2]; Homo sapiens, Calu-6, […]): 9.30
Emax ([2]; Homo sapiens, Calu-6, […]): 98.8%

CC[C@@]1(O)C(=O)OCc2c1cc1n(c2=O)Cc2c-1nc1cc(Cl)c(C)c3c1c2[C@@H](NC(=O)C(C)(C)CO)CC3 [Example 2-8, N-((1S,9S)-5-chloro-9-ethyl-9-hydroxy-4-methyl-10,13-dioxo-2,3,9,10,13,15-hexahydro-1H,12H-benzo[de]pyrano[3′,4′:6,7]indolizino[1,2-b]quinolin-1-yl)-3-hydroxy-2,2-dimethylpropanamide]
pEC50 [1, 3]: 8.92
Emax [1, 3]: 98.6%
pEC50 ([2]; Homo sapiens, Calu-6, […]): 9.40
Emax ([2]; Homo sapiens, Calu-6, […]): 99.3%

CC[C@@]1(O)C(=O)OCc2c1cc1n(c2=O)Cc2c-1nc1cc(F)c(C)c3c1c2C(C(=O)NCCO)CC3 (single isomer, unassigned) [Example 2-52]
pEC50 [1, 3]: 7.79
Emax [1, 3]: 98.9%
pEC50 ([2]; Homo sapiens, Calu-6, […]): 8.22
Emax ([2]; Homo sapiens, Calu-6, […]): 97.3%

CC[C@@]1(O)C(=O)OCc2c1cc1n(c2=O)Cc2c-1nc1cc(F)c(C)c3c1c2[C@@H](NC(=O)[C@@H]1C[C@@H](O)CN1C)CC3 [Example 2-36, (2S,4R)—N-((1S,9S)-9-ethyl-5-fluoro-9-hydroxy-4-methyl-10,13-dioxo-2,3,9,10,13,15-hexahydro-1H,12H-benzo[de]pyrano[3′,4′:6,7]indolizino[1,2-b]quinolin-1-yl)-4-hydroxy-1-methylpyrrolidine-2-carboxamide]
pEC50 [1, 3]: 7.86
Emax [1, 3]: 97.8%
pEC50 ([2]; Homo sapiens, Calu-6, […]): 8.21
Emax ([2]; Homo sapiens, Calu-6, […]): 97.7%

CC[C@@]1(O)C(=O)OCc2c1cc1n(c2=O)Cc2c-1nc1cc3c(c4c1c2[C@@H](N)CC4)OCO3 [Example 1-10, (1S,10S)-1-amino-10-ethyl-10-hydroxy-1,2,3,10,13,16-hexahydro-11H,14H-benzo[de][1,3]dioxolo[4,5-g]pyrano[3′,4′:6,7]indolizino[1,2-b]quinoline-11,14-dione]
pEC50 [1, 4]: 9.40
Emax [1, 4]: 97.7%
Emax ([2]; Homo sapiens, Calu-6, […]): 97.7%
pEC50 ([2]; Homo sapiens): 9.52

CC[C@@]1(O)C(=O)OCc2c1cc1n(c2=O)Cc2c-1nc1cc(F)c(C)c3c1c2C(CCCCO)CC3 (stereo partly drawn) [Example 2-48, (9S)-9-ethyl-5-fluoro-9-hydroxy-1-(4-hydroxybutyl)-4-methyl-1,2,3,9,12,15-hexahydro-10H,13H-benzo[de]pyrano[3′,4′:6,7]indolizino[1,2-b]quinoline-10,13-dione]
pEC50 [1, 3]: 9.40
Emax [1, 3]: 99.5%
pEC50 ([2]; Homo sapiens, Calu-6, […]): 10.00
Emax ([2]; Homo sapiens, Calu-6, […]): 98.7%

CC[C@@]1(O)C(=O)OCc2c1cc1n(c2=O)Cc2c-1nc1cc(F)c(C)c3c1c2[C@@H](NC(=O)c1ccc(CO)o1)CC3 [Example 2-19, N-((1S,9S)-9-ethyl-5-fluoro-9-hydroxy-4-methyl-10,13-dioxo-2,3,9,10,13,15-hexahydro-1H,12H-benzo[de]pyrano[3′,4′:6,7]indolizino[1,2-b]quinolin-1-yl)-5-(hydroxymethyl)furan-2-carboxamide]
pEC50 [1, 4]: 8.34
Emax [1, 4]: 99.7%
Emax ([2]; Homo sapiens, Calu-6, […]): 99.3%
pEC50 ([2]; Homo sapiens): 9.00

CC[C@@]1(O)C(=O)OCc2c1cc1n(c2=O)Cc2c-1nc1cc(F)c(OC)c3c1c2[C@@H](NC(=O)CO)CC3 [Example 2-4, N-((1S,9S)-9-ethyl-5-fluoro-9-hydroxy-4-methoxy-10,13-dioxo-2,3,9,10,13,15-hexahydro-1H,12H-benzo[de]pyrano[3′,4′:6,7]indolizino[1,2-b]quinolin-1-yl)-2-hydroxyacetamide]
pEC50 [1, 3]: 7.74
Emax [1, 3]: 99.3%
pEC50 ([2]; Homo sapiens, Calu-6, […]): 8.31
Emax ([2]; Homo sapiens, Calu-6, […]): 99.7%

CC[C@@]1(O)C(=O)OCc2c1cc1n(c2=O)Cc2c-1nc1cc(F)c(O)c3c1c2[C@@H](N)CC3 [Example 1-3, (1S,9S)-1-amino-9-ethyl-5-fluoro-4,9-dihydroxy-1,2,3,9,12,15-hexahydro-10H,13H-benzo[de]pyrano[3′,4′:6,7]indolizino[1,2-b]quinoline-10,13-dione methanesulfonate]
pEC50 [1, 3]: 6.89
Emax [1, 3]: 98.4%
pEC50 ([2]; Homo sapiens, Calu-6, […]): 7.41
Emax ([2]; Homo sapiens, Calu-6, […]): 98.8%

CC[C@@]1(O)C(=O)OCc2c1cc1n(c2=O)Cc2c-1nc1cc(F)c(C)c3c1c2C(CCCO)CC3 (stereo partly drawn) [Example 2-14, (9S)-9-ethyl-5-fluoro-9-hydroxy-1-(3-hydroxypropyl)-4-methyl-1,2,3,9,12,15-hexahydro-10H,13H-benzo[de]pyrano[3′,4′:6,7]indolizino[1,2-b]quinoline-10,13-dione]
pEC50 [1, 4]: 9.52
Emax [1, 4]: 100%
Emax ([2]; Homo sapiens, Calu-6, […]): 99%
pEC50 ([2]; Homo sapiens): 10.00

CC[C@@]1(O)C(=O)OCc2c1cc1n(c2=O)Cc2c-1nc1cc(F)c(C)c3c1c2[C@@H](NC(=O)NCCO)CC3 [Example 2-26, 1-((1S,9S)-9-ethyl-5-fluoro-9-hydroxy-4-methyl-10,13-dioxo-2,3,9,10,13,15-hexahydro-1H,12H-benzo[de]pyrano[3′,4′:6,7]indolizino[1,2-b]quinolin-1-yl)-3-(2-hydroxyethyl)urea]
pEC50 [1, 4]: 7.73
Emax [1, 4]: 97.7%
Emax ([2]; Homo sapiens, Calu-6, […]): 98.4%
pEC50 ([2]; Homo sapiens): 8.29

CC[C@@]1(O)C(=O)OCc2c1cc1n(c2=O)Cc2c-1nc1cc(F)c(C)c3c1c2C(OCCO)CC3 (single isomer, unassigned) [Example 2-45]
pEC50 [1, 4]: 8.89
Emax [1, 4]: 100%
Emax ([2]; Homo sapiens, Calu-6, […]): 99.2%
pEC50 ([2]; Homo sapiens): 9.15

CC[C@@]1(O)C(=O)OCc2c1cc1n(c2=O)Cc2c-1nc1cc(F)c(C)c3c1c2[C@@H](NC(=O)C1CCC1CO)CC3 (stereo partly drawn) [Example 2-2, N-((1S,9S)-9-ethyl-5-fluoro-9-hydroxy-4-methyl-10,13-dioxo-2,3,9,10,13,15-hexahydro-1H,12H-benzo[de]pyrano[3′,4′:6,7]indolizino[1,2-b]quinolin-1-yl)-2-(hydroxymethyl)cyclobutane-1-carboxamide]
pEC50 [1, 3]: 8.28
Emax [1, 3]: 99.9%
pEC50 ([2]; Homo sapiens, Calu-6, […]): 8.89
Emax ([2]; Homo sapiens, Calu-6, […]): 98.7%

CC[C@@]1(O)C(=O)OCc2c1cc1n(c2=O)Cc2c-1nc1cc(Cl)cc3c1c2[C@@H](N)CC3 [Example 1-14, (1S,9S)-1-amino-5-chloro-9-ethyl-9-hydroxy-1,2,3,9,12,15-hexahydro-10H,13H-benzo[de]pyrano[3′,4′:6,7]indolizino[1,2-b]quinoline-10,13-dione]
pEC50 [1, 4]: 8.60
Emax [1, 4]: 100%
Emax ([2]; Homo sapiens, Calu-6, […]): 98.8%
pEC50 ([2]; Homo sapiens): 9.10

CC[C@@]1(O)C(=O)OCc2c1cc1n(c2=O)Cc2c-1nc1cc(O)cc3c1c2[C@@H](N)CC3 [Example 1-24, (1S,9S)-1-amino-9-ethyl-5,9-dihydroxy-1,2,3,9,12,15-hexahydro-10H,13H-benzo[de]pyrano[3′,4′:6,7]indolizino[1,2-b]quinoline-10,13-dione methanesulfonate]
pEC50 [1, 3]: 6.95
Emax [1, 3]: 96%
pEC50 ([2]; Homo sapiens, Calu-6, […]): 6.93
Emax ([2]; Homo sapiens, Calu-6, […]): 94.4%

CC[C@@]1(O)C(=O)OCc2c1cc1n(c2=O)Cc2c-1nc1cc(Cl)c(C)c3c1c2[C@@H](NC(=O)CO)CC3 [Example 2-7, N-((1S,9S)-5-chloro-9-ethyl-9-hydroxy-4-methyl-10,13-dioxo-2,3,9,10,13,15-hexahydro-1H,12H-benzo[de]pyrano[3′,4′:6,7]indolizino[1,2-b]quinolin-1-yl)-2-hydroxyacetamide]
pEC50 [1, 3]: 8.70
Emax [1, 3]: 99.1%
pEC50 ([2]; Homo sapiens, Calu-6, […]): 9.15
Emax ([2]; Homo sapiens, Calu-6, […]): 99.1%

CC[C@@]1(O)C(=O)OCc2c1cc1n(c2=O)Cc2c-1nc1cc3c(c4c1c2C(CCCO)CC4)OCO3 (single isomer, unassigned) [Example 2-60]
pEC50 ([1]; A375, 6 days, Cell Titer-Glo): 9.10
Emax (%) ([1]; A375, 6 days, Cell Titer-Glo): 100.0%
potency compared with compound 1-A and 1-C ([1]; Table 18, A375 and Calu-6): higher potency than compound 1-A and 1-C
pEC50 [2]: 9.70
Emax (%) [2]: 98.2%

CC[C@@]1(O)C(=O)OCc2c1cc1n(c2=O)Cc2c-1nc1cc(F)cc3c1c2[C@@H](NC(=O)C(C)(C)CO)CC3 [Example 2-43, N-((1S,9S)-9-ethyl-5-fluoro-9-hydroxy-10,13-dioxo-2,3,9,10,13,15-hexahydro-1H,12H-benzo[de]pyrano[3′,4′:6,7]indolizino[1,2-b]quinolin-1-yl)-3-hydroxy-2,2-dimethylpropanamide]
pEC50 [1, 3]: 8.44
Emax [1, 3]: 100%
pEC50 ([2]; Homo sapiens, Calu-6, […]): 8.96
Emax ([2]; Homo sapiens, Calu-6, […]): 99.2%

CC[C@@]1(O)C(=O)OCc2c1cc1n(c2=O)Cc2c-1nc1cc(Cl)cc3c1c2[C@@H](NC(=O)CO)CC3 [Example 2-12, N-((1S,9S)-5-chloro-9-ethyl-9-hydroxy-10,13-dioxo-2,3,9,10,13,15-hexahydro-1H,12H-benzo[de]pyrano[3′,4′:6,7]indolizino[1,2-b]quinolin-1-yl)-2-hydroxyacetamide]
pEC50 [1, 3]: 8.17
Emax [1, 3]: 99.9%
pEC50 ([2]; Homo sapiens, Calu-6, […]): 8.36
Emax ([2]; Homo sapiens, Calu-6, […]): 98.9%
